This note sets out measurements from ChEMBL document CHEMBL1127582, “Novel 3 alpha-(diphenylmethoxy)tropane analogs: potent dopamine uptake inhibitors without cocaine-like behavioral profiles” (J Med Chem, 1994).

The target in experiment [1] is Sodium-dependent dopamine transporter (Rattus norvegicus, UniProt P23977). As to the kind of experiment: Compound was evaluated for its ability to displace [3H]WIN-35428 binding in rat caudate-putamen. Format: tissue-based.
The next experiment is filed under the species Rattus norvegicus. As to the kind of experiment: Compound was evaluated for its ability to block the [3H]-Dopamine uptake in rat caudate-putamen. The experiment is classed as functional, organism-based.

pIC50, pKi: −log10 of the molar value.

Chain of Sodium-dependent dopamine transporter (P23977 whole entry): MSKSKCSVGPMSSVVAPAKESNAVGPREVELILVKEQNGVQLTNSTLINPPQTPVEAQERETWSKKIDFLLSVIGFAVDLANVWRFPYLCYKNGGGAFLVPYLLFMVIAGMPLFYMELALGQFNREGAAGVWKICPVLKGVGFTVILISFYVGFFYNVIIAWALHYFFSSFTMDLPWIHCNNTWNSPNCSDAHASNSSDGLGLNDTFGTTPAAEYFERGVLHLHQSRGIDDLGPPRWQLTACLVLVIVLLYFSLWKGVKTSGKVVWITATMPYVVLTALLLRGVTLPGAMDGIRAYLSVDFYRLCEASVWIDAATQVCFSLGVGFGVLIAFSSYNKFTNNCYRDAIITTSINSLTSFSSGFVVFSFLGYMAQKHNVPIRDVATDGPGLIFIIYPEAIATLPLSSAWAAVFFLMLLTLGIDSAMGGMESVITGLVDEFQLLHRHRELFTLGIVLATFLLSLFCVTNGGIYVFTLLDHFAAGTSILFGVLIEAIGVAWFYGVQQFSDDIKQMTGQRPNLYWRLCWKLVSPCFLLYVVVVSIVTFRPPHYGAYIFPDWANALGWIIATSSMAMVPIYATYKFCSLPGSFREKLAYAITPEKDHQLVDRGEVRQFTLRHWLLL

On to `CN1C2CCC1CC(OC(c1ccccc1)c1ccc(Cl)cc1)C2` (centres undefined), for which the negative-log Ki (pKi) in experiment [1] was 6.07. For the same compound, the negative-log IC50 (pIC50) in the experiment filed under Rattus norvegicus is 5.45. With `COc1ccc(C(OC2CC3CCC(C2)N3C)c2ccccc2)cc1` (centres undefined), in experiment [1], the negative-log Ki (pKi) is 7.11. In the experiment listed under Rattus norvegicus, this compound gave a pIC50 of 6.33.

Regarding `Fc1ccc(C(OCCN2CCN(CCCc3ccccc3)CC2)c2ccc(F)cc2)cc1` [VANOXERINE], in the experiment filed under Rattus norvegicus, the pIC50 was 8.30.

Take `COc1ccc(C(OC2CC3CCC(C2)N3C)c2ccc(OC)cc2)cc1` (centres undefined): in experiment [1], the pKi is 5.70. In the experiment filed under Rattus norvegicus, this compound had a negative-log IC50 (pIC50) of 5.54.

In turn, `CN1[C@@H]2CC[C@H]1C[C@@H](OC(c1ccccc1)c1ccc(Cl)cc1)C2` (some centres undefined) had a negative logarithm of the Ki (pKi) in experiment [1] of 7.52. The compound further showed a negative-log IC50 (pIC50) in the experiment listed under Rattus norvegicus of 6.94.
